Test results: patent US10308643B2, “Heterocyclic compound” (Takeda Pharmaceutical Company Limited, priority 2015, dated 2019)

Legend:
Type in all cases: biochemical
[1] = biological target: T1, HDAC1 enzyme (Homo sapiens, UniProt Q13547); assay: HDAC1/6 Enzyme Inhibitory Assay (HDAC-Glo I/II Assay kit), HDAC1; conditions: 1 μM test compound, wells without enzyme = 100% inhibition; for inhibition at 1 µM: read-out: HDAC1 inhibitory rate (%) (1 μM)
T1 construct: transducing full length HDAC1 and HDAC6 genes into Sf-9 insect cells; GST; purchased SignalChem; host or cells: Sf-9 insect cells
Procedure: (§1) HDAC1/6 Enzyme Inhibitory Assay
(§2) HDAC1 enzyme and HDAC6 enzyme each prepared by transducing full length HDAC1 and HDAC6 genes into Sf-9 insect cells and purifying by GST affinity column were purchased from SignalChem. Using these enzymes, HDAC1 and/or HDAC6 enzyme inhibitory activities of the compound of the present invention were evaluated. Enzymes were used after preserved at −70° C. HDAC1 or HDAC6 enzyme inhibitory activity of the compound of the present invention was measured using HDAC-Glo™ I/II Assay kit (Promega) according to the following experimental method. The test compound diluted with assay buffer (24 mM Tris-HCl (pH 7.5), 1 mM MgCl2, 0.35 mM KCl, 135 mM NaCl, 0.6 mM Glutathione, 0.01% Tween-20) was added to a 384-well plate by each 2 μL. Then, HDAC1 or HDAC6 enzyme solution diluted with assay buffer was added thereto by each 4 μL, and the plate was incubated at room temperature for 60 min. After incubated, HDAC substrate-Developer solution prepared according to Promega protocol attached to the assay kit was added to the 384-well plate by each 2 μL, and the enzyme reaction was started. After reacting at room temperature for 20 min, luminescence level was measured using plate reader Envision (PerkinElmer). The inhibitory activity of each compound was calculated as a relative activity value when luminescence level in wells without enzyme is considered as 100% inhibition.

[2] = biological target: T2, HDAC9 enzyme (Homo sapiens, UniProt Q9UKV0); assay: HDAC9 Enzyme Inhibitory Assay (HDAC-Glo class IIa); conditions: 1 μM test compound, wells without enzyme = 100% inhibition; for inhibition at 1 µM: read-out: HDAC9 inhibitory rate (%) (1 μM)
T2 construct: transducing full length HDAC9 gene into Sf-9 insect cells; made in house; host or cells: Sf-9 insect cells
Procedure: HDAC9 Enzyme Inhibitory Assay
Enzyme was prepared by transducing full length HDAC9 gene into Sf-9 insect cells and purifying by Ni-NTA affinity column, and HDAC9 enzyme inhibitory activity was evaluated. Enzymes were used after preserved at −70° C. HDAC9 enzyme inhibitory activity of the test compound was measured using HDAC-Glo class IIa (Promega) according to the following experimental method. The test compound diluted with assay buffer (24 mM Tris-HCl (pH 7.5), 1 mM MgCl2, 0.35 mM KCl, 135 mM NaCl, 0.6 mM Glutathione, 0.01% Tween-20) was added to a 384-well plate by each 2 μL. Then, HDAC9 enzyme solution diluted with assay buffer was added thereto by each 2 μL, and the plate was incubated at room temperature for 60 min. After incubated, HDAC substrate-Developer solution prepared according to Promega protocol was added to the 384-well plate by each 4 μL, and the enzyme reaction was started. After reacting at room temperature for 20 min, luminescence level was measured using plate reader Envision (PerkinElmer). The inhibitory activity of each compound was calculated as a relative activity value when luminescence level in wells without enzyme is considered as 100% inhibition.

[3] = biological target: T3, HDAC6 enzyme (Homo sapiens, UniProt Q9UBN7); assay: HDAC1/6 Enzyme Inhibitory Assay (HDAC-Glo I/II Assay kit), HDAC6; conditions: 1 μM test compound, wells without enzyme = 100% inhibition; for inhibition at 1 µM: read-out: HDAC6 inhibitory rate (%) (1 μM)
T3 construct: transducing full length HDAC1 and HDAC6 genes into Sf-9 insect cells; GST; purchased SignalChem; host or cells: Sf-9 insect cells
T3 sequence (Q9UBN7 1-1215): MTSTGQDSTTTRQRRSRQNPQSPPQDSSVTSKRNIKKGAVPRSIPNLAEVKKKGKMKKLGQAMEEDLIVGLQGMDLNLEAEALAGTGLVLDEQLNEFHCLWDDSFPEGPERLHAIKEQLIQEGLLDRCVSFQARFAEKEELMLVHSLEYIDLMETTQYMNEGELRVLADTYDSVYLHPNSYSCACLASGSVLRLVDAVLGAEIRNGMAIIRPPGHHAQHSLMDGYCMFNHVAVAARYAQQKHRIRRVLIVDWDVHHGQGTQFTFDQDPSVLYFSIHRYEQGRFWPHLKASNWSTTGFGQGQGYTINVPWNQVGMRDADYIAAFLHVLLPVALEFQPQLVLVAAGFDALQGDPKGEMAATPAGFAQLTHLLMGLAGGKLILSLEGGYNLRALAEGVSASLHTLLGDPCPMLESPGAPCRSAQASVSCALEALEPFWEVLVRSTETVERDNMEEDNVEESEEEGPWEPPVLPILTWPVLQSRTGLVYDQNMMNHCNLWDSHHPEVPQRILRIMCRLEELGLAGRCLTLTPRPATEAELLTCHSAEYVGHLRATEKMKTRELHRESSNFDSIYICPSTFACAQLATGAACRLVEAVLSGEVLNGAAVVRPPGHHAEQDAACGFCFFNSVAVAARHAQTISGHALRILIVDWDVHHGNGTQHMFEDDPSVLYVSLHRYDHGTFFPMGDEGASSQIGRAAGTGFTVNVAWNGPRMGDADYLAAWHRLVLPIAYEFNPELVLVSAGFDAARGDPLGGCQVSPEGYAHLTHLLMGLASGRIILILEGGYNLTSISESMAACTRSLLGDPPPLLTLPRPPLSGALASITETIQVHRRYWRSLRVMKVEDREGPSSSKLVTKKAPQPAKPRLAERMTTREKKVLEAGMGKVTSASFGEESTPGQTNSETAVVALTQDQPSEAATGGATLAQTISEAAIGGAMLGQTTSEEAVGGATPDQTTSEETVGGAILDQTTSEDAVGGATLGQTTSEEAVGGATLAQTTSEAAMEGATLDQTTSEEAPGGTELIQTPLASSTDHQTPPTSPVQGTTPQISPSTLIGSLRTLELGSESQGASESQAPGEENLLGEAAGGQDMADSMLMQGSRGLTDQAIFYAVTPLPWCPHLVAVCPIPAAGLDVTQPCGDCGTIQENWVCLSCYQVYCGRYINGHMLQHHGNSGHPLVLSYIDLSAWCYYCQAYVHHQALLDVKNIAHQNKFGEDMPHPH
Procedure: as §1, §2

T1 sequence (Q13547 whole entry): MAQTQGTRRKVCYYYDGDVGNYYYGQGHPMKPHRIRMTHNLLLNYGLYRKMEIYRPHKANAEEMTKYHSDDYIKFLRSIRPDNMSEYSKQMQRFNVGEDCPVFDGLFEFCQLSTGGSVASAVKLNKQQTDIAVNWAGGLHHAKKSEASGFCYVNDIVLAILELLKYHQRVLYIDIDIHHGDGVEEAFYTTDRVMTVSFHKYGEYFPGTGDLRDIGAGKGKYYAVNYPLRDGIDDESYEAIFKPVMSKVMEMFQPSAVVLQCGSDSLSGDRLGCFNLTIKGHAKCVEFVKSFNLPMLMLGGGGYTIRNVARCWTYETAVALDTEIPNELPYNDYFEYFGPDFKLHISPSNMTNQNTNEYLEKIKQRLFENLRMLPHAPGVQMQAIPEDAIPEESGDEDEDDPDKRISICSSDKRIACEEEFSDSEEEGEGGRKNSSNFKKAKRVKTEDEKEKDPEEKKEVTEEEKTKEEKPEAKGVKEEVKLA
T2 sequence (Q9UKV0 whole entry, species assumed): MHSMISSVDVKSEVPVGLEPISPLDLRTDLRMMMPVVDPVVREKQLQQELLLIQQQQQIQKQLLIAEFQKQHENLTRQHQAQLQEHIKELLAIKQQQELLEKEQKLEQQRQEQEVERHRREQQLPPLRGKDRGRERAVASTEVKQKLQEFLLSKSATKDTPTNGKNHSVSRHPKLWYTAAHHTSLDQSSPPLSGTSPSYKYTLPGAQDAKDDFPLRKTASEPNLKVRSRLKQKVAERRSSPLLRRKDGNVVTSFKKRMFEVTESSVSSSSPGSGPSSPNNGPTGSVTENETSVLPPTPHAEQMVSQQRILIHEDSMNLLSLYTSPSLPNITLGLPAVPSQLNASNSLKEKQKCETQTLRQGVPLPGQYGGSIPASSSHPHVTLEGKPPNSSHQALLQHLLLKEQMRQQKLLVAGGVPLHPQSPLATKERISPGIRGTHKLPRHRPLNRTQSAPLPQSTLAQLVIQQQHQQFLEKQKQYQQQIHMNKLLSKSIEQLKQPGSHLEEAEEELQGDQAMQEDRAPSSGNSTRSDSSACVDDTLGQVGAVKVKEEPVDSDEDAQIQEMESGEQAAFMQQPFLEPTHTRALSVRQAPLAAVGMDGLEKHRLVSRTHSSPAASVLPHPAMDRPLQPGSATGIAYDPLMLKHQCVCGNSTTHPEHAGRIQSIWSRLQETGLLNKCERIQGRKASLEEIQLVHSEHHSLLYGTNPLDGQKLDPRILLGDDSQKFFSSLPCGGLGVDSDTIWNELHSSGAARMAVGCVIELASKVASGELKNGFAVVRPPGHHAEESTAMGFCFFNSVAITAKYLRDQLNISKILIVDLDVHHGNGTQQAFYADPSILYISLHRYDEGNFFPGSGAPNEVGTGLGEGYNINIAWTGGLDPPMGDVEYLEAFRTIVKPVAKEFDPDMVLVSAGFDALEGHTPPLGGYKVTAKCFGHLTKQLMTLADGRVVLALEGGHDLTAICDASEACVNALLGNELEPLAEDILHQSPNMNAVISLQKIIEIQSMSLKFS

Structure (SMILES) | inhibition at 1 µM [1] [%] | inhibition at 1 µM [2] [%] | inhibition at 1 µM [3] [%] | HDAC1 inhibitory rate (%) (1 μM) ([1]; 1 µM) | HDAC9 inhibitory rate (%) (1 μM) ([2]; 1 µM) | HDAC6 inhibitory rate (%) (1 μM) [3]
O=C1CC[C@@H](C(=O)N[C@@H]2CCCC[C@H]2N2Cc3ccc(-c4noc(C(F)(F)F)n4)cc3C2=O)N1 [Example 128, 5-oxo-N-((1R,2R)-2-(1-oxo-6-(5-(trifluoromethyl)-1,2,4-oxadiazol-3-yl)-1,3-dihydro-2H-isoindol-2-yl)cyclohexyl)-L-prolinamide] | -3 | 39 | 92 |  |  | 
Cc1cc([C@@H]2CNCC[C@H]2N2Cc3ccc(-c4noc(C(F)(F)F)n4)cc3C2=O)ccc1F (relative stereo) [Example 49, 2-(trans-3-(4-fluoro-3-methylphenyl)piperidin-4-yl)-6-(5-(trifluoromethyl)-1,2,4-oxadiazol-3-yl)isoindolin-1-one] | 96 | 99 | 100 |  |  | 
N#Cc1ccccc1C(=O)N[C@@H]1CCCC[C@H]1N1Cc2ccc(-c3noc(C(F)(F)F)n3)cc2C1=O [Example 106, 2-cyano-N-((1R,2R)-2-(1-oxo-6-(5-(trifluoromethyl)-1,2,4-oxadiazol-3-yl)-1,3-dihydro-2H-isoindol-2-yl)cyclohexyl)benzamide] | 58 | 88 | 101 |  |  | 
O=C1CCC2(CCC(N3Cc4ccc(-c5noc(C(F)(F)F)n5)cc4C3=O)CC2)N1 (stereo not drawn) [Example 64, (5r,8r)-8-(1-oxo-6-(5-(trifluoromethyl)-1,2,4-oxadiazol-3-yl)-1,3-dihydro-2H-isoindol-2-yl)-1-azaspiro[4.5]decan-2-one] | 6 | 70 | 93 |  |  | 
O=C(N[C@@H]1CCCC[C@H]1N1Cc2ccc(-c3noc(C(F)(F)F)n3)cc2C1=O)N1CC2CC1CO2 (stereo partly drawn) [Example 157, N-((1R,2R)-2-(1-oxo-6-(5-(trifluoromethyl)-1,2,4-oxadiazol-3-yl)-1,3-dihydro-2H-isoindol-2-yl)cyclohexyl)-2-oxa-5-azabicyclo[2.2.1]heptane-5-carboxamide] |  |  |  | −2 | 15 | 96
O=C1c2cc(-c3noc(C(F)(F)F)n3)ccc2CN1C1CCNC[C@@H]1c1ccc(Cl)cc1 (stereo in doubt) [Example 51, 2-(trans-3-(4-chlorophenyl)piperidin-4-yl)-6-(5-(trifluoromethyl)-1,2,4-oxadiazol-3-yl)isoindolin-1-one] | 94 | 99 | 98 |  |  | 
CC(=O)N1CCCC(N2Cc3ncc(-c4noc(C(F)(F)F)n4)cc3C2=O)C1 (stereo not drawn) [Example 39, 6-(1-acetylpiperidin-3-yl)-3-(5-(trifluoromethyl)-1,2,4-oxadiazol-3-yl)-6,7-dihydro-5H-pyrrolo[3,4-b]pyridin-5-one] | 23 | 86 | 91 |  |  | 
CC(=O)N1C[C@@H](N2Cc3ccc(-c4noc(C(F)(F)F)n4)cc3C2=O)[C@H](c2ccccc2)C1 (relative stereo) [Example 4, trans-2-(1-acetyl-4-phenylpyrrolidin-3-yl)-6-(5-(trifluoromethyl)-1,2,4-oxadiazol-3-yl)isoindolin-1-one] | 69 | 96 | 99 |  |  | 
O=C(N[C@@H]1CCCC[C@H]1N1Cc2ccc(-c3noc(C(F)(F)F)n3)cc2C1=O)N1C2COCC1C2 [Example 144, N-((1R,2R)-2-(1-oxo-6-(5-(trifluoromethyl)-1,2,4-oxadiazol-3-yl)-1,3-dihydro-2H-isoindol-2-yl)cyclohexyl)-3-oxa-6-azabicyclo[3.1.1]heptane-6-carboxamide] | 3 | 31 | 100 |  |  | 

Now from value to compound:

inhibition at 1 µM [1] [%] | inhibition at 1 µM [2] [%] | inhibition at 1 µM [3] [%] | HDAC1 inhibitory rate (%) (1 μM) ([1]; 1 µM) | HDAC9 inhibitory rate (%) (1 μM) ([2]; 1 µM) | HDAC6 inhibitory rate (%) (1 μM) [3] | Structure (SMILES)
9 | 29 | 99 |  |  |  | O=C(N[C@@H]1CCCC[C@H]1N1Cc2ccc(-c3noc(C(F)(F)F)n3)cc2C1=O)N1CC(F)C1 [Example 187, 3-fluoro-N-((1R,2R)-2-(1-oxo-6-(5-(trifluoromethyl)-1,2,4-oxadiazol-3-yl)-1,3-dihydro-2H-isoindol-2-yl)cyclohexyl)azetidine-1-carboxamide]
11 | 38 | 99 |  |  |  | N#CC12CC(C(=O)N[C@@H]3CCCC[C@H]3N3Cc4ccc(-c5noc(C(F)(F)F)n5)cc4C3=O)(C1)C2 [Example 160, 3-cyano-N-((1R,2R)-2-(1-oxo-6-(5-(trifluoromethyl)-1,2,4-oxadiazol-3-yl)-1,3-dihydro-2H-isoindol-2-yl)cyclohexyl)bicyclo[1.1.1]pentane-1-carboxamide]
5 | 57 | 100 |  |  |  | COC1(C(=O)N[C@@H]2CCCC[C@H]2N2Cc3ccc(-c4noc(C(F)(F)F)n4)cc3C2=O)CCC1 [Example 175, 1-methoxy-N-((1R,2R)-2-(1-oxo-6-(5-(trifluoromethyl)-1,2,4-oxadiazol-3-yl)-1,3-dihydro-2H-isoindol-2-yl)cyclohexyl)cyclobutanecarboxamide]
13 | 59 | 99 |  |  |  | O=C(N[C@H]1CCOC[C@@H]1N1Cc2ccc(-c3noc(C(F)(F)F)n3)cc2C1=O)[C@H]1CC1(F)F [Example 202, (1R)-2,2-difluoro-N-((3R,4S)-3-(1-oxo-6-(5-(trifluoromethyl)-1,2,4-oxadiazol-3-yl)-1,3-dihydro-2H-isoindol-2-yl)tetrahydro-2H-pyran-4-yl)cyclopropanecarboxamide]
23 | 65 | 84 |  |  |  | O=C(N[C@H]1COCC[C@@H]1N1Cc2ccc(-c3noc(C(F)(F)F)n3)cc2C1=O)[C@@H]1CC1(F)F [Example 220, (1S)-2,2-difluoro-N-((3R,4S)-4-(1-oxo-6-(5-(trifluoromethyl)-1,2,4-oxadiazol-3-yl)-1,3-dihydro-2H-isoindol-2-yl)tetrahydro-2H-pyran-3-yl)cyclopropanecarboxamide]
